From article PMC11393688, “Design and synthesis of new 1,2,4-oxadiazole/quinazoline-4-one hybrids with antiproliferative activity as multitargeted inhibitors” (Frontiers in Chemistry, 2024) come the findings set out here.

Series [1] concerns pancreatic cancer (Panc-1) cell line. In words: Antiproliferative MTT assay, Panc-1. As to conditions: Homo sapiens, Panc-1 pancreatic cancer cells, read-out: Antiproliferative activity IC50 ± SEM Panc-1. The format is cell-based. The method, then:
(§1) 4.2.1.2. Assay for antiproliferative effect
(§2) To explore the antiproliferative potential of compounds MTT assay was performed according to previously reported procedure using different cell lines to explore the antiproliferative potential of […]
(§3) calculate the total nuclear DNA, a fluorescent dye (propidium iodide, PI) is used which can attach to the DNA, thus offering a quick and precise technique. PI cannot pass through the cell membrane and its signal intensity can be considered as directly proportional to quantity of cellular DNA.
(§4) Cells whose cell membranes are damaged or have changed permeability are counted as dead ones.
(§5) The assay was performed by seeding the cells of different cell lines at a density of 3000-7500 cells/well (in 200µl medium) in culture plates followed by incubation for 24h at 37 °C in humidified 5% CO2/95% air atmospheric conditions. The medium was removed; the compounds were added to the plates at 10 µM concentrations (in 0.1% DMSO) in triplicates, followed by incubation for 48 h. DMSO (0.1%) was used as control. After incubation, medium was removed […]
(§6) 80 °C, the plates were allowed to freeze for 24 h, followed by thawing at 25 °C. […]
(§7) (Polar-Star BMG Tech) was used to record the readings at excitation and emission wavelengths of 530 and 620 nm for each well. The percentage cytotoxicity of compounds was calculated using […]
(§8) Where ATC= Absorbance of treated cells and AC= Absorbance of control. Erlotinib was used as positive control in the assay.

The target of series [2] is T1, EGFR (Homo sapiens, UniProt P00533).
T1 construct: amino acids 645–1186; His6 (N); made in house; host or cells: Sf-9 insect cells (baculovirus; pBlueBacHis2B / pFASTBacHTc)
In words: EGFR-TK inhibitory assay. The format is biochemical. As to conditions: read-out: EGFR inhibition IC50 ± SEM. The procedure: 4.2.1.3. EGFR inhibitory assay
Sf-9 cells were infected for 72h for protein expression. […]
centrifugation for 20 min.
Histidine-linked proteins were first eluted with 250 and then […]
using wash buffer. Europium-tagged antiphosphotyrosine antibody (75 µL, 400 ng) was added to each well followed by incubation of 1h and then washing of the plates using buffer. The enhancement solution was added to each well and the signal was recorded at excitation and […]
The autophosphorylation percentage inhibition by compounds was calculated using the following equation: […]
(1 picture or pasted object on this page, not shown here)

The nature of series [3]: Cell viability, MTT test on normal cell line. Format: cell-based. As to conditions: human, MCF-10A mammary gland epithelial cells (normal cell line), MCF-10A normal cells, 4 days incubation. The method, then: The human mammary gland epithelial (MCF-10A) normal cell line was used to test the viability of novel compounds 9a-o ([Mahmoud et al., 2022]; [Mekheimer et al., 2022]). After 4 days of incubation on MCF-10A cells, the cell viability of compounds 9a-o was determined using the MTT test.
The human mammary gland epithelial (MCF-10A) normal cell line was used to test the viability of compounds 9a-o ([Mahmoud et al., 2022]; [Mekheimer et al., 2022]). Refer to Supplementary Appendix A (Supplementary Material) for more details.
4.2. Biological evaluation
4.2.1. Cytotoxic activity using MTT Assay and evaluation of IC50
MTT assay was carried out to study the effect of compounds on mammary epithelial cells (MCF-10A). The medium in which cells were propagated contained Dulbecco's modified Eagle's medium (DMEM)/ Ham's F-12 medium (1:1) supplemented with epidermal growth factor (20 ng/mL), hydrocortisone (500 ng/mL), insulin (10 μg/mL), 2 mM glutamine and 10% foetal calf serum.
After every 2-3 days, the cells were passaged using trypsin ethylenediamine tetra acetic acid (EDTA). The cells were seeded at a density of 10^4 cells mL-1 in flat-bottomed culture plates containing 96 wells each. After 24 h, medium was removed from the plates and the compounds in (in 0.1% DMSO) were added (in 200 μL medium to yield a final concentration of 0.1% v/v) to the wells of plates. A single compound was designated with four wells followed by incubation of plates for 96h at 37°C. After incubation, medium was removed completely from the plates followed by addition of MTT (0.4 mg/mL in medium) to each well and subsequent incubation of plates for 3h. MTT (along with the medium) was removed and DMSO (150μL) was added to each well of the culture plates, followed by vertexing and subsequent measurement of absorbance (at 540 nm) using microplate reader. The data are shown as percentage inhibition of proliferation in comparison with controls containing 0.1% DMSO.
A general note: Formazan colour is commonly taken as a measure of viable cells.

In series [4] the test system is four human cancer cell lines (HT-29, Panc-1, A-549, MCF-7). In words: Average antiproliferative activity (GI50) over four cancer cell lines. The format is cell-based. As to conditions: average IC50 against the four cancer cell lines. The method, then: as §1, §2, §3, §4, §5, §6, §7, §8

T1 sequence (P00533 669-1210): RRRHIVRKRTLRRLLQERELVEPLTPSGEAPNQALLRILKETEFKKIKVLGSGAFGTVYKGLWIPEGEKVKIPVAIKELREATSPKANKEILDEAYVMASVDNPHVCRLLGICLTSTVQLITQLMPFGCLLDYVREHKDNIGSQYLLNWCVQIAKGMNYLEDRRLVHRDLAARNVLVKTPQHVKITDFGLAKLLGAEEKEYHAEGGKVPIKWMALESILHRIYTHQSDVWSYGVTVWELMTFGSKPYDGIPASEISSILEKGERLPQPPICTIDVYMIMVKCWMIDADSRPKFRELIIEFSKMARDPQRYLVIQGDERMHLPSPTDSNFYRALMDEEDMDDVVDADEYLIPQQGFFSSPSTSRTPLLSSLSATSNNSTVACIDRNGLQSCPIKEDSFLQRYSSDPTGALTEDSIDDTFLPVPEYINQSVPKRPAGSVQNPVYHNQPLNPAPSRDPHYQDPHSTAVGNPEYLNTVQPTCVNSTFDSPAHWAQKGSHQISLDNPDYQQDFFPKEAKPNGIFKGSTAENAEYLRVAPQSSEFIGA

Take `O=c1c2ccccc2nc(SCc2nc(-c3ccc(Cl)cc3)no2)n1-c1ccccc1` [Compound 9b, 2-((3-(4-Chlorophenyl)-1,2,4-oxadiazol-5-yl)methylthio)-3 phenylquinazolin-4(3H)-one]: the 50% inhibitory concentration (IC50) (usually the midpoint of a concentration-inhibition curve) was 24 ± 2 nM in series [1] and 57 ± 4 nM in series [2]. In series [3], the viability (commonly a read-out of living cells in per cent, often relative to untreated cells) at 96 h, 50 µM stood at 89%. In addition, growth in series [4] was halved (GI50) at 24 nM.
